Reference: patent US12545637B2, “Extrahepatic targeted cationic lipid compound with high efficiency and low toxicity and its composition” (BEIJING YOUCARE KECHUANG PHARMACEUTICAL TECHNOLOGY CO., LTD., priority 2023, dated 2026)

Legend:
[1] = Detection of encapsulation efficiency, drug loading concentration and total RNA concentration (RiboGreen); assay type: physicochemical; settings: for Drug loading concentration / Encapsulation efficiency / Total RNA concentration: LNP formulation prepared from the cationic lipid; for encapsulation efficiency higher than ALC-0315: difference vs ALC-0315; for encapsulation efficiency higher than HIMA: difference vs HIMA (HHMA); for encapsulation efficiency higher than SM-102: difference vs SM-102; for encapsulation efficiency higher than YK-009: difference vs YK-009; for encapsulation efficiency higher than compound 21: difference vs compound 21; for encapsulation efficiency higher than compound 23: difference vs compound 23; for drug loading concentration, times that of ALC-0315 / total RNA concentration, times that of ALC-0315: ratio vs ALC-0315; for drug loading concentration, times that of HIMA / total RNA concentration, times that of HIMA: ratio vs HIMA (HHMA); for drug loading concentration, times that of SM-102 / total RNA concentration, times that of SM-102: ratio vs SM-102; for drug loading concentration, times that of YK-009 / total RNA concentration, times that of YK-009: ratio vs YK-009; for drug loading concentration, times that of compound 21 / total RNA concentration, times that of compound 21: ratio vs compound 21; for drug loading concentration, times that of compound 23 / total RNA concentration, times that of compound 23: ratio vs compound 23
Method in brief: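 LNP samples were diluted in 1×TE to approximately […], then mixed with 1×TE and 0.1% Triton X-100 buffers. After 10 minutes at 37 °C, RiboGreen (1:200) was added and fluorescence read against an mRNA standard, giving encapsulation efficiency, drug loading concentration and total RNA concentration.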

female BALB/C mice = experiment: In vivo imaging in mice of Fluc-mRNA LNP formulations (mRNA expression and duration); settings: for average radiation intensity, 6 h / average radiation intensity, 24 h / average radiation intensity, 48 h / average radiation intensity, 7 d: Fluc-mRNA LNP intramuscular; for average radiation intensity, 6 h: 6 h after administration; for average radiation intensity, 24 h: 24 h after administration; for average radiation intensity, 48 h: 48 h after administration; for average radiation intensity, 7 d: 7 d after administration
Method in brief: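 Female BALB/C mice (4-6 weeks, 17-19 g) received LNP carrying […] Fluc-mRNA intramuscularly. At 6h, 24 h, 48h and 7d, fluorescent imaging substrate was given intraperitoneally and after 5 minutes average radiance, as a measure of expressed protein, was imaged on an IVIS Spectrum system.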

## CCCCCCCCC(CCCCCCCC)COC(=O)CCCCCN(CCCO)CCN(CCCO)CCCCCC(=O)OCC(CCCCCCCC)CCCCCCCC [YK-422, di(2-octyldecyl) 6,6′-(ethane-1,2-diyl-bis((3-hydroxypropyl)azanediyl))dihexanoate]
[1]
  Drug loading concentration: 45.05 µg/mL
  Encapsulation efficiency: 92.4%
  Total RNA concentration: 45.76 µg/mL
  encapsulation efficiency higher than ALC-0315: 29.1%
  encapsulation efficiency higher than HIMA: 32.2%
  encapsulation efficiency higher than SM-102: 29.5%
  encapsulation efficiency higher than YK-009: 29.0%
  encapsulation efficiency higher than compound 21: 34.4%
  encapsulation efficiency higher than compound 23: 36.2%
  drug loading concentration, times that of ALC-0315: 1.68
  total RNA concentration, times that of ALC-0315: 1.21
  drug loading concentration, times that of HIMA: 1.38
  total RNA concentration, times that of HIMA: 1.26
  drug loading concentration, times that of SM-102: 1.70
  total RNA concentration, times that of SM-102: 1.27
  drug loading concentration, times that of YK-009: 1.64
  total RNA concentration, times that of YK-009: 1.19
  drug loading concentration, times that of compound 21: 2.05
  total RNA concentration, times that of compound 21: 1.58
  drug loading concentration, times that of compound 23: 2.25
  total RNA concentration, times that of compound 23: 1.47
Female BALB/C mice; 6 h
  average radiation intensity, times that of ALC-0315: 1.58
  average radiation intensity, times that of HHMA: 2.01
  average radiation intensity, times that of SM-102: 1.92
  average radiation intensity, times that of compound 21: 2.21
  average radiation intensity, times that of compound 23: 2.29
  expression amount in mice, times that of YK-415: 11.28
  expression amount in mice, times that of YK-417: 21.98
  mRNA expression in mice, times that of YK-411: 227.25
Female BALB/C mice; 24 h
  average radiation intensity, times that of ALC-0315: 3.73
  average radiation intensity, times that of HHMA: 5.90
  average radiation intensity, times that of SM-102: 5.74
  average radiation intensity, times that of compound 21: 6.38
  average radiation intensity, times that of compound 23: 7.01
  expression amount in mice, times that of YK-415: 10.98
  expression amount in mice, times that of YK-417: 35.43
  mRNA expression in mice, times that of YK-411: 350.21
Female BALB/C mice; 48 h
  average radiation intensity, times that of ALC-0315: 6.76
  average radiation intensity, times that of HHMA: 8.14
  average radiation intensity, times that of SM-102: 8.26
  average radiation intensity, times that of compound 21: 8.60
  average radiation intensity, times that of compound 23: 8.24
  expression amount in mice, times that of YK-415: 17.19
  expression amount in mice, times that of YK-417: 38.52
  mRNA expression in mice, times that of YK-411: 278.33
Female BALB/C mice; 7 d
  average radiation intensity, times that of ALC-0315: 1.35
  average radiation intensity, times that of HHMA: 1.59
  average radiation intensity, times that of SM-102: 1.41
  average radiation intensity, times that of compound 21: 1.49
  average radiation intensity, times that of compound 23: 1.55
  expression amount in mice, times that of YK-415: 2.34
  expression amount in mice, times that of YK-417: 4.15
  mRNA expression in mice, times that of YK-411: 19.74
Female BALB/C mice
  average radiation intensity, 6 h: 1329410
  average radiation intensity, 24 h: 708120
  average radiation intensity, 48 h: 271372
  average radiation intensity, 7 d: 9476

## CCCCCCCCC(CCCCCCCC)COC(=O)CCCCCN(CCCO)CCCN(CCCO)CCCCCC(=O)OCC(CCCCCCCC)CCCCCCCC [YK-423, di(2-octyldecyl) 6,6′-(propan-1,3-diyl-bis((3-hydroxypropyl)azanediyl))dihexanoate]
[1]
  Drug loading concentration: 37.47 µg/mL
  Encapsulation efficiency: 89.7%
  Total RNA concentration: 41.00 µg/mL
  encapsulation efficiency higher than ALC-0315: 26.4%
  encapsulation efficiency higher than HIMA: 29.5%
  encapsulation efficiency higher than SM-102: 26.8%
  encapsulation efficiency higher than YK-009: 26.3%
  encapsulation efficiency higher than compound 21: 31.7%
  encapsulation efficiency higher than compound 23: 33.5%
  drug loading concentration, times that of ALC-0315: 1.39
  total RNA concentration, times that of ALC-0315: 1.08
  drug loading concentration, times that of HIMA: 1.15
  total RNA concentration, times that of HIMA: 1.13
  drug loading concentration, times that of SM-102: 1.41
  total RNA concentration, times that of SM-102: 1.14
  drug loading concentration, times that of YK-009: 1.36
  total RNA concentration, times that of YK-009: 1.06
  drug loading concentration, times that of compound 21: 1.71
  total RNA concentration, times that of compound 21: 1.42
  drug loading concentration, times that of compound 23: 1.87
  total RNA concentration, times that of compound 23: 1.32
Female BALB/C mice; 6 h
  average radiation intensity, times that of ALC-0315: 1.94
  average radiation intensity, times that of HHMA: 2.46
  average radiation intensity, times that of SM-102: 2.35
  average radiation intensity, times that of compound 21: 2.71
  average radiation intensity, times that of compound 23: 2.80
  expression amount in mice, times that of YK-415: 13.81
  expression amount in mice, times that of YK-417: 26.91
  mRNA expression in mice, times that of YK-411: 278.19
Female BALB/C mice; 24 h
  average radiation intensity, times that of ALC-0315: 3.99
  average radiation intensity, times that of HHMA: 6.30
  average radiation intensity, times that of SM-102: 6.13
  average radiation intensity, times that of compound 21: 6.81
  average radiation intensity, times that of compound 23: 7.49
  expression amount in mice, times that of YK-415: 11.73
  expression amount in mice, times that of YK-417: 37.85
  mRNA expression in mice, times that of YK-411: 374.12
Female BALB/C mice; 48 h
  average radiation intensity, times that of ALC-0315: 8.73
  average radiation intensity, times that of HHMA: 10.50
  average radiation intensity, times that of SM-102: 10.65
  average radiation intensity, times that of compound 21: 11.10
  average radiation intensity, times that of compound 23: 10.64
  expression amount in mice, times that of YK-415: 22.17
  expression amount in mice, times that of YK-417: 49.70
  mRNA expression in mice, times that of YK-411: 359.10
Female BALB/C mice; 7 d
  average radiation intensity, times that of ALC-0315: 1.44
  average radiation intensity, times that of HHMA: 1.69
  average radiation intensity, times that of SM-102: 1.50
  average radiation intensity, times that of compound 21: 1.58
  average radiation intensity, times that of compound 23: 1.65
  expression amount in mice, times that of YK-415: 2.50
  expression amount in mice, times that of YK-417: 4.42
  mRNA expression in mice, times that of YK-411: 21.03
Female BALB/C mice
  average radiation intensity, 6 h: 1627420
  average radiation intensity, 24 h: 756472
  average radiation intensity, 48 h: 350120
  average radiation intensity, 7 d: 10093
